One data set has as its target T1, human NaV1.7 (Homo sapiens, UniProt Q15858).
T1 construct: permanently transfected with an expression vector containing the full-length cDNA coding for the desired human sodium channel α-subunit; expressed in transfected cells; host or cells: HEK-293
Kind of data set: Patch voltage clamp electrophysiology assay (EP), NaV1.7. The format is cell-based. The following applies: HEK-293 cells stably expressing NaV1.7 with β1 subunit; whole-cell patch clamp, membrane potential −60 mV (inactivated state). The gist of the method: (§1)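 HEK-293 cells stably expressing human α-subunit with β1; whole-cell patch clamp (PatchXpress or manual), ambient temperature, pH 7.4 external NaCl, CsF internal. Held at −60 mV (full inactivation), stepped to −150 mV for 20 ms, then test pulse; percent current decrease after compound wash-on taken as block.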
Background: In patch-clamp work, channel activity is measured electrically.

A further data set deals with T2, NaV1.5 (Homo sapiens, UniProt Q14524).
T2 construct: permanently transfected with an expression vector containing the full-length cDNA coding for the desired human sodium channel α-subunit; expressed in transfected cells; host or cells: HEK-293
T2 sequence (Q14524 whole entry): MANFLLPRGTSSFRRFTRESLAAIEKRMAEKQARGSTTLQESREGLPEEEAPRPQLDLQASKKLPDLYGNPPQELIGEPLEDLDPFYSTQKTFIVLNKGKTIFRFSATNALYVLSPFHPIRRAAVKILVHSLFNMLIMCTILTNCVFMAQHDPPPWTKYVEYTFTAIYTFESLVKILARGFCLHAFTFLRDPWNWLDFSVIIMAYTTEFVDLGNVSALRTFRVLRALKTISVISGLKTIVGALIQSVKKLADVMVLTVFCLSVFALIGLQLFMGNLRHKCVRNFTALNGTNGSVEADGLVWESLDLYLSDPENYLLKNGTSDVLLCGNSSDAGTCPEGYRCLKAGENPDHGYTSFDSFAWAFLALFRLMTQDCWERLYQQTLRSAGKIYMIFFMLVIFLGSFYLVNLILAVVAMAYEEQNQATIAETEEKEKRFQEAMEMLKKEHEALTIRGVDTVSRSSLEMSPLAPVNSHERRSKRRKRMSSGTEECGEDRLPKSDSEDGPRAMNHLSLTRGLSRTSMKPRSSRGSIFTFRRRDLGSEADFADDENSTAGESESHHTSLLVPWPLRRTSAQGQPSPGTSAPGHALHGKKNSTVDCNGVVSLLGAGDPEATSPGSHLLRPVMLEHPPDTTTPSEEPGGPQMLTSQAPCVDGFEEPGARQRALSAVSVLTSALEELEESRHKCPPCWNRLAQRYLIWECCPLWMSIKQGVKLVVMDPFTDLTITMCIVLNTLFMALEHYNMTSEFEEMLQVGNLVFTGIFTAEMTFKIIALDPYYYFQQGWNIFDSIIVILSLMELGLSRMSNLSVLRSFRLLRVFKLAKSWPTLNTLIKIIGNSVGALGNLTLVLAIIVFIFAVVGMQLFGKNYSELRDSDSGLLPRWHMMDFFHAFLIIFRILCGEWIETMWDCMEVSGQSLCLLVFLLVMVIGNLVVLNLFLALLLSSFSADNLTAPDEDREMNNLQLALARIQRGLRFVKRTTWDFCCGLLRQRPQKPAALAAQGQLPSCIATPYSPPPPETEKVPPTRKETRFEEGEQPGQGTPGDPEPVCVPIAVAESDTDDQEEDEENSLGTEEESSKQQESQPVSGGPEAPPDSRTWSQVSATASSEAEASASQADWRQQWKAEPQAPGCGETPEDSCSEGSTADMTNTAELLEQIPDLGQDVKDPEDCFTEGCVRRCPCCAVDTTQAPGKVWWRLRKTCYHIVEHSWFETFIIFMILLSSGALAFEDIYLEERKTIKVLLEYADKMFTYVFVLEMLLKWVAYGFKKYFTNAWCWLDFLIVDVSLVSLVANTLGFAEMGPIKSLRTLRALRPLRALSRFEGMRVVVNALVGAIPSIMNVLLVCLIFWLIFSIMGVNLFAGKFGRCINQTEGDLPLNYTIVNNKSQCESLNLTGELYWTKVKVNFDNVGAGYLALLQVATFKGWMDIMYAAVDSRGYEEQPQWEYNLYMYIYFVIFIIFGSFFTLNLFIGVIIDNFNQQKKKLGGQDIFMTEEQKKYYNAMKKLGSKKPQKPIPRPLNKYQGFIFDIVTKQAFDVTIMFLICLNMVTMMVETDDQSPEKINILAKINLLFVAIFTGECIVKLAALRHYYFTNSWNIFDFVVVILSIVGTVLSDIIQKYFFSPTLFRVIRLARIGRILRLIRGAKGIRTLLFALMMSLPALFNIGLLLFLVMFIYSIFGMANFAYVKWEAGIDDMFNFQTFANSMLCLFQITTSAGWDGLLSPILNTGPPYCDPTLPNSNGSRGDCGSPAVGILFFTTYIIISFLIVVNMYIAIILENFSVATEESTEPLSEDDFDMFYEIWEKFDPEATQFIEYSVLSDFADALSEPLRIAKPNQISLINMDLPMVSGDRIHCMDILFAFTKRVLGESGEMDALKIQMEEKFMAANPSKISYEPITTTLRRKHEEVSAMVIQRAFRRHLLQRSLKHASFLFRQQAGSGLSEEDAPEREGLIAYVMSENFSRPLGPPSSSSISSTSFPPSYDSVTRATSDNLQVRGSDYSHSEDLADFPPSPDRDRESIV
Kind of data set: Patch voltage clamp electrophysiology assay (EP), NaV1.5. Particulars: HEK-293 cells stably expressing NaV1.5 with β1 subunit, whole-cell patch clamp, membrane potential −60 mV (inactivated state). The format is cell-based. Put shortly: as §1

The next data set deals with T3, hNav1.7 (Homo sapiens, UniProt Q15858).
T3 construct: expressed in transfected cells
T3 sequence (Q15858 1-1977 isoform Q15858-3): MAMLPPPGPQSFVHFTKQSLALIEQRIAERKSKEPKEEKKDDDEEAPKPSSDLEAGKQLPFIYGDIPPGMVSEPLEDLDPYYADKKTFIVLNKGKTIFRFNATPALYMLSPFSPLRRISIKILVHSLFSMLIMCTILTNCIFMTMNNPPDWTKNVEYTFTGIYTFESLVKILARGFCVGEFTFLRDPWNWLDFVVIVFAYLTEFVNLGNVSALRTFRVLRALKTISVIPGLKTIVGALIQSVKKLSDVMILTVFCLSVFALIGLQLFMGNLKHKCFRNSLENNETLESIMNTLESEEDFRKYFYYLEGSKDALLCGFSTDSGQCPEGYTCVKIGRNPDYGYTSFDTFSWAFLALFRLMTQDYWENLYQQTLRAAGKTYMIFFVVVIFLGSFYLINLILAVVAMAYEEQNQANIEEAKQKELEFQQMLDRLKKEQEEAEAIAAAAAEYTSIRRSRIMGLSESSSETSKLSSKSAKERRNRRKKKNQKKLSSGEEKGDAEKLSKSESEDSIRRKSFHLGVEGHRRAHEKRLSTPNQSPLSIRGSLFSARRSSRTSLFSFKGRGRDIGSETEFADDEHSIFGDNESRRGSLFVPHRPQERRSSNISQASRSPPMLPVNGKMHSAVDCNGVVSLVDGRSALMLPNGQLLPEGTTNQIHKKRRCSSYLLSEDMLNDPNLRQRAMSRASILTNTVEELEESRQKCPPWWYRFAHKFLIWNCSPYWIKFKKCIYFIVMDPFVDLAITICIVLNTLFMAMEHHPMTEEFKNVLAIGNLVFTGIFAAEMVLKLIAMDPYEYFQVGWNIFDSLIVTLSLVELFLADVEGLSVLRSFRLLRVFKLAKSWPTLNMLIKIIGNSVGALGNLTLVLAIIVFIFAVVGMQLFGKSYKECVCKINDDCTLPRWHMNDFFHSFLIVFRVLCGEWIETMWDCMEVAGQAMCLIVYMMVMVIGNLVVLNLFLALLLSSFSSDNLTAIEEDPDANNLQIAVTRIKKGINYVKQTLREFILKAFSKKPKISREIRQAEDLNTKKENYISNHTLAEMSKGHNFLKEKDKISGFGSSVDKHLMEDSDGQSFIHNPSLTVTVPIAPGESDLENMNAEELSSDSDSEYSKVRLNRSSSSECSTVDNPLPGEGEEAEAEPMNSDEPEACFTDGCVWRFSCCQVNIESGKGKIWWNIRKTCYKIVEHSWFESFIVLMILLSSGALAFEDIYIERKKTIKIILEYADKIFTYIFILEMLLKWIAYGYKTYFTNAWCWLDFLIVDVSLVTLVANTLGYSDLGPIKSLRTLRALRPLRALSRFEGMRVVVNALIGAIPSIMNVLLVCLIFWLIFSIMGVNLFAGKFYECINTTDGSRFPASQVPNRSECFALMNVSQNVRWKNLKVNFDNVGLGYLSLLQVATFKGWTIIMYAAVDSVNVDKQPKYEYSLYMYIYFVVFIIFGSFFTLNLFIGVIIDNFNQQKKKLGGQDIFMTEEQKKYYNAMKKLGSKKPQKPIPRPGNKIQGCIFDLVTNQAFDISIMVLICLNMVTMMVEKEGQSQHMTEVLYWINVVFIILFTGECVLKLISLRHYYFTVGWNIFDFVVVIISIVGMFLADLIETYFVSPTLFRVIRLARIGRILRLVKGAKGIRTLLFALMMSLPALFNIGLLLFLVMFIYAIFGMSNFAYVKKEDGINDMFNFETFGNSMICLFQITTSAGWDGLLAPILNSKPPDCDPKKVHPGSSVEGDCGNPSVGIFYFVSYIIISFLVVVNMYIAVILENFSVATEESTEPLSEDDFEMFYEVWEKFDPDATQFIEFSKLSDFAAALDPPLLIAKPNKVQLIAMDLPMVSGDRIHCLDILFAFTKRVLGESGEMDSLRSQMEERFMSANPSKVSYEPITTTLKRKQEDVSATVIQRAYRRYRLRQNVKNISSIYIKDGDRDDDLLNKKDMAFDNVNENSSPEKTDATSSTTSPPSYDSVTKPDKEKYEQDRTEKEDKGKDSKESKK
T3 sequence (Q07699 19-218 partner): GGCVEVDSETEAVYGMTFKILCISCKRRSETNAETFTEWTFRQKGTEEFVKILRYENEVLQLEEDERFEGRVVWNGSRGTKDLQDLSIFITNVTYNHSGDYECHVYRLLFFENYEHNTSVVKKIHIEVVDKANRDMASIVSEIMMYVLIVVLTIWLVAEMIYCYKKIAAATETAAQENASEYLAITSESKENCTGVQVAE
Put plainly: Tritiated compound binding (LBA) to membranes from cells expressing hNav1.7 and the β1 subunit, competitive binding. The following applies: competitive binding vs 100 pM [3H]compound, 18 h, room temperature, membranes with hNav1.7 and β1 subunit. The gist of the method:
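Membranes from cells expressing hNav1.7 with β1 were incubated 18 h at room temperature with 100 pM tritiated formula (I) compound and increasing test compound, in 100 mM NaCl, 20 mM Tris HCl pH 7.4, 0.01% BSA.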

The mark [1] stands for this setting: human, HEK-293 cells stably expressing human NaV1.5 with β1 subunit, pH 7.4.

Like-named read-outs stand apart in the source and are kept apart here.

T1 sequence (Q15858 1-1977 isoform Q15858-3): as the sequence (Q15858 1-1977 isoform Q15858-3) above
T1 sequence (Q07699 19-218 partner): as the sequence (Q07699 19-218 partner) above

Take `O=C(O)[C@@H]1C=C(C(F)(F)F)CN1C(=O)c1cc(C2CC2)c(OCC23CC4CC(CC(C4)C2)C3)cc1F` [Example 203]: the IC50 on human NaV1.7 is 10 µM; on NaV1.5 (read-out: Nav1.5), 19 µM; at hNav1.7, at least 10 µM.
Turning to `O=C(O)[C@@H]1C[C@@H](F)CN1C(=O)c1c(F)cc(OCC23CC4CC(CC(C4)C2)C3)cc1C1CC1` [Example 204, (2S,4R)-1-(4-(adamantan-1-ylmethoxy)-2-cyclopropyl-6-fluorobenzoyl)-4-fluoropyrrolidine-2-carboxylic acid], the IC50 at human NaV1.7 came out at 7.8 µM; at NaV1.5 (read-out: Nav1.5), 23 µM; on hNav1.7, 0.56 µM.
The matching figures for `CO[C@H]1CN(C(=O)c2cc(C3CC3)c(OCC34CC5CC(CC(C5)C3)C4)cc2F)[C@H](C(=O)O)C1C` (stereo partly drawn) [Example 205, (2S,4R)-1-(4-(adamantan-1-ylmethoxy)-5-cyclopropyl-2-fluorobenzoyl)-4-methoxy-3-methylpyrrolidine-2-carboxylic acid]: 2.2 µM, 25 µM and 0.17 µM.
As to `O=C(O)C[C@@H]1CCCN1C(=O)c1cc(C2CC2)c(OCC23CC4CC(CC(C4)C2)C3)cc1F` [Example 206, 2-((S)-1-(4-(adamantan-1-ylmethoxy)-5-cyclopropyl-2-fluorobenzoyl)pyrrolidin-2-yl)acetic acid], the IC50 was 2.6 µM against human NaV1.7, 16 µM on NaV1.5 (read-out: Nav1.5) and 0.26 µM on hNav1.7.
The matching figures for `CO[C@@H]1CN(C(=O)c2cc(C3CC3)c(OCC34CC5CC(CC(C5)C3)C4)cc2F)[C@H](C(=O)O)[C@H]1C` [Example 207, (2S,3R,4S)-1-(4-(adamantan-1-ylmethoxy)-5-cyclopropyl-2-fluorobenzoyl)-4-methoxy-3-methylpyrrolidine-2-carboxylic acid]: 0.38 µM, 16 µM and 0.036 µM.
In the same order, the values of `CC1[C@H](O)CN(C(=O)c2cc(C3CC3)c(OCC3(F)CCN([C@@H](C)c4cc(Cl)cc(Cl)c4)CC3)cc2F)[C@@H]1C(=O)O` (stereo partly drawn) [Example 208, (2S,4S)-1-(5-Cyclopropyl-4-((1-((S)-1-(3,5-dichlorophenyl)ethyl)-4-fluoropiperidin-4-yl)methoxy)-2-fluorobenzoyl)-4-hydroxy-3-methylpyrrolidine-2-carboxylic acid] are 0.21 µM, 16 µM and 0.082 µM.
The matching figures for `CC1[C@@H](C(=O)O)N(C(=O)c2cc(C3CC3)c(OCC3(F)CCN([C@@H](C)c4cc(Cl)cc(Cl)c4)CC3)cc2F)C[C@@H]1F` (stereo partly drawn) [Example 209, (2S,4R)-1-(5-cyclopropyl-4-((1-((S)-1-(3,5-dichlorophenyl)ethyl)-4-fluoropiperidin-4-yl)methoxy)-2-fluorobenzoyl)-4-fluoro-3-methylpyrrolidine-2-carboxylic acid]: 0.7 µM, 20 µM and 0.2 µM.
With `C[C@@H]1[C@H](F)CN(C(=O)c2cc(C3CC3)c(OCC34CC5CC(CC(C5)C3)C4)cc2F)[C@@H]1C(=O)O` [Example 210a, (2S,3S,4S)-1-(4-(adamantan-1-ylmethoxy)-5-cyclopropyl-2-fluorobenzoyl)-4-fluoro-3-methylpyrrolidine-2-carboxylic acid], the IC50 against human NaV1.7 worked out at 1.9 µM; at NaV1.5 (read-out: Nav1.5) it was 27 µM; at hNav1.7, 0.22 µM.
Take `C[C@H]1[C@H](F)CN(C(=O)c2cc(C3CC3)c(OCC34CC5CC(CC(C5)C3)C4)cc2F)[C@@H]1C(=O)O` [Example 210b, (2S,3R,4S)-1-(4-(adamantan-1-ylmethoxy)-5-cyclopropyl-2-fluorobenzoyl)-4-fluoro-3-methylpyrrolidine-2-carboxylic acid]: the IC50 on human NaV1.7 amounted to 0.81 µM; on NaV1.5 (read-out: Nav1.5), 17 µM; at hNav1.7, 0.03 µM.
In the same order, the values of `O=C(O)[C@@H]1C[C@H](C(F)(F)F)CN1C(=O)c1cc(C2CC2)c(OCC23CC4CC(CC(C4)C2)C3)cc1F` [Example 211, (2S,4S)-1-(4-((adamantan-1-yl)methoxy)-5-cyclopropyl-2-fluorobenzoyl)-4-(trifluoromethyl)pyrrolidine-2-carboxylic acid] are 6.7 µM, 14 µM and 2.3 µM.
The matching figures for `O=C(c1cc(C2CC2)c(OCC23CC4CC(CC(C4)C2)C3)cc1F)N1CCC2CC21C(=O)O` (stereo not drawn) [Example 212, 2-(4-((Adamantan-1-yl)methoxy)-5-cyclopropyl-2-fluorobenzoyl)-2-azabicyclo[3.1.0]hexane-1 carboxylicacid]: 3.5 µM, 17 µM and 0.29 µM.
In the case of `O=C(O)[C@@H]1CC(O)(C(F)(F)F)CN1C(=O)c1cc(C2CC2)c(OCC23CC4CC(CC(C4)C2)C3)cc1F` (stereo partly drawn) [Example 213, (2S)-1-(4-((adamantan-1-yl)methoxy)-5-cyclopropyl-2-fluorobenzoyl)-4-hydroxy-4-(trifluoromethyl)pyrrolidine-2-carboxylic acid], the figures for the IC50 against human NaV1.7, at NaV1.5 (read-out: Nav1.5) and on hNav1.7 were 3.4 µM, 7.6 µM and 5.3 µM, respectively.
Turning to `COC1(C(F)(F)F)C[C@@H](C(=O)O)N(C(=O)c2cc(C3CC3)c(OCC34CC5CC(CC(C5)C3)C4)cc2F)C1` (stereo partly drawn) [Example 214, (2S)-1-(4-((Adamantan-1-yl)methoxy)-5-cyclopropyl-2-fluorobenzoyl)-4-methoxy-4-(trifluoromethyl)pyrrolidine-2-carboxylic acid], the figures for the IC50 on human NaV1.7, at NaV1.5 (read-out: Nav1.5) and on hNav1.7 were 8.2 µM, 11 µM and 9.7 µM, respectively.
As for `O=C(O)C[C@@H]1CCN1C(=O)c1cc(C2CC2)c(OCC23CC4CC(CC(C4)C2)C3)cc1F` [Example 215, 2-((S)-1-(4-((adamantan-1-yl)methoxy)-5-cyclopropyl-2-fluorobenzoyl)azetidin-2-yl)acetic acid], the IC50 on human NaV1.7 is 5.4 µM; on NaV1.5 (setting [1]), at least 30 µM; at hNav1.7, 1.1 µM.
Regarding `CC(C)[C@H](NC(=O)c1cc(C2CC2)c(OCC2(F)CCN(Cc3cc(Cl)cc(C(F)(F)F)c3)CC2)cc1F)C(=O)O` [Example 216, (4-((1-(3-Chloro-5-(trifluoromethyl)benzyl)-4-fluoropiperidin-4-yl)methoxy)-5-cyclopropyl-2-fluorobenzoyl)-L-valine], the figures for the IC50 on human NaV1.7, against NaV1.5 (setting [1]) and on hNav1.7 were 8.6 µM, at least 30 µM and 0.6 µM, respectively.
`CC1(O)C[C@@H](C(=O)O)N(C(=O)c2cc(C3CC3)c(OCC34CC5CC(CC(C5)C3)C4)cc2F)C1` (stereo partly drawn) [Example 218, (2S)-1-(4-(adamantan-1-ylmethoxy)-5-cyclopropyl-2-fluorobenzoyl)-4-hydroxy-4-methylpyrrolidine-2-carboxylic acid]: the IC50 on human NaV1.7 is 1.6 µM; at NaV1.5 (read-out: Nav1.5), 24 µM; at hNav1.7 it was 0.23 µM.
On to `C[C@@H]1[C@@H](C(=O)O)N(C(=O)c2cc(C3CC3)c(OCC34CC5CC(CC(C5)C3)C4)cc2F)C[C@@H]1F` [Example 219, (2S,3R,4R)-1-(4-(adamantan-1-ylmethoxy)-5-cyclopropyl-2-fluorobenzoyl)-4-fluoro-3-methylpyrrolidine-2-carboxylic acid], for which the IC50 was found to be 0.26 µM against human NaV1.7, 12 µM at NaV1.5 (read-out: Nav1.5) and 0.0064 µM at hNav1.7.

The values are drawn from patent publication US10125098B2, “Therapeutic compounds and methods of use thereof” (GENENTECH, INC., priority 2014, dated 2018).
